US20160060260A1, “BROMODOMAIN INHIBITORS FOR TREATING DISEASE” (Board of Regents, The University of Texas System, priority 2014, published 2016)

Molecular target: T1, Recombinant human His-tagged Trim24-PHD-bromodomain (Homo sapiens, UniProt O15164)
T1 construct: Recombinant human His-tagged Trim24-PHD-bromodomain (produced in-house); made in house
T1 sequence (O15164 824-1006 limits assumed): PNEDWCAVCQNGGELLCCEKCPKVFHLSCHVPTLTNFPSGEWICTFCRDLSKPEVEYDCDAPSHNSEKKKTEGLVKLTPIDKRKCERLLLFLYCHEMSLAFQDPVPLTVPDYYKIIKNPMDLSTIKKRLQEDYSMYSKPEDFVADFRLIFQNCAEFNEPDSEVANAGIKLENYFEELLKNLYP
Test: Trim24 AlphaScreen Assay
Type: binding
Details: 5 nM Trim24 protein, 15 nM biotinylated H3K23ac (1-33aa) peptide
Protocol: Recombinant human His-tagged Trim24-PHD-bromodomain (produced in-house), biotinylated H3K23ac (1-33aa) peptide (AnaSpec, Inc.), and test compound were added to a 384-well OptiPlate (Perkin Elmer) and incubated at room temperature for one hour. The assay buffer consisted of 50 mM Hepes, pH 7.5, 100 mM NaCl, and 0.12 mM Triton X-100.
Streptavidin donor beads and nickel chelate acceptor beads, both from a Perkin Elmer AlphaScreen Histidine Detection Kit, were then added to the Optiplate to a final concentration of 10 ug/mL each. Following a 2 hour incubation at room temperature, the microplate was read on an Envision Plate Reader (Perkin Elmer). Percent of control (POC) values were calculated from the following formula:
POC=[sample signal-average background signal]/[average maximum signal−average background signal]*100
The average maximum signal was obtained from wells containing all assay components except test compound. The average background signal pertained to wells with all assay components except Trim24 and test compound. IC50 values were calculated using a four-parameter logistic curve fit.

IC50 [nM] | SMILES
100 to 1000 | COc1ccc(S(=O)(=O)Nc2cc3c(cc2Oc2cccc(OCc4ccccc4)c2)n(C)c(=O)n3C)cc1 [Example 17, N-(6-(3-(benzyloxy)phenoxy)-1,3-dimethyl-2-oxo-2,3-dihydro-1H-benzo[d]imidazol-5-yl)-4-methoxybenzenesulfonamide]
100 to 1000 | COc1cccc(S(=O)(=O)Nc2cc3c(cc2Oc2cccc(OCc4ccccc4)c2)n(C)c(=O)n3C)c1 [Example 18, N-(6-(3-(benzyloxy)phenoxy)-1,3-dimethyl-2-oxo-2,3-ddihydro-1H-benzo[d]imidazol-5-yl)-3-methoxybenzenesulfonamide]
> 1000 | COc1ccc(S(=O)(=O)Nc2cc3c(cc2Oc2cccc(OCc4ccc(Cl)nc4)c2)n(C)c(=O)n3C)cc1OC [Example 20, N-(6-(3-((6-chloropyridin-3-yl)methoxy)phenoxy)-1,3-dimethyl-2-oxo-2,3-dihydro-1H-benzo[d]imidazol-5-yl)-3,4-dimethoxybenzenesulfonamide]
> 1000 | Cn1c(=O)n(C)c2cc(Oc3cccc(OCc4ccccc4)c3)c(NS(=O)(=O)c3ccsc3)cc21 [Example 21, N-(6-(3-(benzyloxy)phenoxy)-1,3-dimethyl-2-oxo-2,3-dihydro-1H-benzo[d]imidazol-5-yl)thiophene-3-sulfonamide]
100 to 1000 | Cn1c(=O)n(C)c2cc(Oc3cccc(OCc4ccccc4)c3)c(NS(=O)(=O)c3nnc[nH]3)cc21 [Example 22, N-(6-(3-(benzyloxy)phenoxy)-1,3-dimethyl-2-oxo-2,3-dihydro-1H-benzo[d]imidazol-5-yl)-4H-1,2,4-triazole-3-sulfonamide]
100 to 1000 | Cc1nn(C)cc1S(=O)(=O)Nc1cc2c(cc1Oc1cccc(OCc3ccccc3)c1)n(C)c(=O)n2C [Example 23, N-(6-(3-(benzyloxy)phenoxy)-1,3-dimethyl-2-oxo-2,3-dihydro-1H-benzo[d]imidazol-5-yl)-1,3-dimethyl-1H-pyrazole-4-sulfonamide]
> 1000 | Cc1ccsc1S(=O)(=O)Nc1cc2c(cc1Oc1cccc(OCc3ccccc3)c1)n(C)c(=O)n2C [Example 24, N-(6-(3-(benzyloxy)phenoxy)-1,3-dimethyl-2-oxo-2,3-dihydro-1H-benzo[d]imidazol-5-yl)-3-methylthiophene-2-sulfonamide]
100 to 1000 | Cn1cc(S(=O)(=O)Nc2cc3c(cc2Oc2cccc(OCc4ccccc4)c2)n(C)c(=O)n3C)cn1 [Example 25, N-(6-(3-(benzyloxy)phenoxy)-1,3-dimethyl-2-oxo-2,3-dihydro-1H-benzo[d]imidazol-5-yl)-1-methyl-1H-pyrazole-4-sulfonamide]
100 to 1000 | Cc1nc(S(=O)(=O)Nc2cc3c(cc2Oc2cccc(OCc4ccccc4)c2)n(C)c(=O)n3C)cn1C [Example 26, N-(6-(3-(benzyloxy)phenoxy)-1,3-dimethyl-2-oxo-2,3-dihydro-1H-benzo[d]imidazol-5-yl)-1,2-dimethyl-1H-imidazole-4-sulfonamide]
> 1000 | COCCS(=O)(=O)Nc1cc2c(cc1Oc1cccc(OCc3ccccc3)c1)n(C)c(=O)n2C [Example 27, N-(6-(3-(benzyloxy)phenoxy)-1,3-dimethyl-2-oxo-2,3-dihydro-1H-benzo[d]imidazol-5-yl)-2-methoxyethane-1-sulfonamide]
100 to 1000 | Cn1cnc(S(=O)(=O)Nc2cc3c(cc2Oc2cccc(OCc4ccccn4)c2)n(C)c(=O)n3C)c1 [Example 28, N-(1,3-dimethyl-2-oxo-6-(3-(pyridin-2-ylmethoxy)phenoxy)-2,3-dihydro-1H-benzo[d]imidazol-5-yl)-1-methyl-1H-imidazole-4-sulfonamide]
100 to 1000 | COc1ccc(S(=O)(=O)Nc2cc3c(cc2Oc2cccc(OCc4ccccn4)c2)n(C)c(=O)n3C)cc1OC [Example 29, N-(1,3-dimethyl-2-oxo-6-(3-(pyridin-2-ylmethoxy)phenoxy)-2,3-dihydro-1H-benzo[d]imidazol-5-yl)-3,4-dimethoxybenzenesulfonamide]
100 to 1000 | Cn1cnc(S(=O)(=O)Nc2cc3c(cc2Oc2cccc(OCc4ccncc4)c2)n(C)c(=O)n3C)c1 [Example 30, N-(1,3-dimethyl-2-oxo-6-(3-(pyridin-4-ylmethoxy)phenoxy)-2,3-dihydro-1H-benzo[d]imidazol-5-yl)-1-methyl-1H-imidazole-4-sulfonamide]
100 to 1000 | COc1ccc(S(=O)(=O)Nc2cc3c(cc2Oc2cccc(OCc4ccncc4)c2)n(C)c(=O)n3C)cc1OC [Example 31, N-(1,3-dimethyl-2-oxo-6-(3-(pyridin-4-ylmethoxy)phenoxy)-2,3-dihydro-1H-benzo[d]imidazol-5-yl)-3,4-dimethoxybenzenesulfonamide]
> 1000 | CC(C)c1cccc(S(=O)(=O)Nc2cc3c(cc2Oc2cccc(OCc4ccccc4)c2)n(C)c(=O)n3C)c1 [Example 32, N-(6-(3-(benzyloxy)phenoxy)-1,3-dimethyl-2-oxo-2,3-dihydro-1H-benzo[d]imidazol-5-yl)-3-isopropylbenzenesulfonamide]
> 1000 | CCc1cccc(S(=O)(=O)Nc2cc3c(cc2Oc2cccc(OCc4ccccc4)c2)n(C)c(=O)n3C)c1 [Example 33, N-(6-(3-(benzyloxy)phenoxy)-1,3-dimethyl-2-oxo-2,3-dihydro-1H-benzo[d]imidazol-5-yl)-3-ethylbenzenesulfonamide]
100 to 1000 | Cc1cccc(S(=O)(=O)Nc2cc3c(cc2Oc2cccc(OCc4ccccc4)c2)n(C)c(=O)n3C)c1 [Example 34, N-(6-(3-(benzyloxy)phenoxy)-1,3-dimethyl-2-oxo-2,3-dihydro-1H-benzo[d]imidazol-5-yl)-3-methylbenzenesulfonamide]
> 1000 | Cc1ccccc1S(=O)(=O)Nc1cc2c(cc1Oc1cccc(OCc3ccccc3)c1)n(C)c(=O)n2C [Example 35, N-(6-(3-(benzyloxy)phenoxy)-1,3-dimethyl-2-oxo-2,3-dihydro-1H-benzo[d]imidazol-5-yl)-2-methylbenzenesulfonamide]
100 to 1000 | Cn1c(=O)n(C)c2cc(Oc3cccc(OCc4ccccc4)c3)c(NS(=O)(=O)c3ccc4c(c3)OCO4)cc21 [Example 36, N-(6-(3-(benzyloxy)phenoxy)-1,3-dimethyl-2-oxo-2,3-dihydro-1H-benzo[d]imidazol-5-yl)benzo[d][1,3]dioxole-5-sulfonamide]
> 1000 | Cn1c(=O)n(C)c2cc(Oc3cccc(OCc4ccccc4)c3)c(NS(=O)(=O)c3ccccc3Br)cc21 [Example 37, N-(6-(3-(benzyloxy)phenoxy)-1,3-dimethyl-2-oxo-2,3-dihydro-1H-benzo[d]imidazol-5-yl)-2-bromobenzenesulfonamide]
> 1000 | Cn1c(=O)n(C)c2cc(Oc3cccc(OCc4ccccc4)c3)c(NS(=O)(=O)c3cccc(Br)c3)cc21 [Example 38, N-(6-(3-(benzyloxy)phenoxy)-1,3-dimethyl-2-oxo-2,3-dihydro-1H-benzo[d]imidazol-5-yl)-3-bromobenzenesulfonamide]
100 to 1000 | Cn1cnc(S(=O)(=O)Nc2cc3c(cc2Oc2cccc(OCc4cccnc4)c2)n(C)c(=O)n3C)c1 [Example 39, N-(1,3-dimethyl-2-oxo-6-(3-(pyridin-3-ylmethoxy)phenoxy)-2,3-dihydro-1H-benzo[d]imidazol-5-yl)-1-methyl-1H-imidazole-4-sulfonamide]
> 1000 | Cn1cnc(S(=O)(=O)Nc2cc3c(cc2Oc2cccc(OCc4cccc(C#N)c4)c2)n(C)c(=O)n3C)c1 [Example 40, N-(6-(3-((3-cyanobenzyl)oxy)phenoxy)-1,3-dimethyl-2-oxo-2,3-dihydro-1H-benzo[d]imidazol-5-yl)-1-methyl-1H-imidazole-4-sulfonamide]
100 to 1000 | Cc1c(S(=O)(=O)Nc2cc3c(cc2Oc2cccc(OCc4ccccc4)c2)n(C)c(=O)n3C)cnn1C [Example 41, N-(6-(3-(benzyloxy)phenoxy)-1,3-dimethyl-2-oxo-2,3-dihydro-1H-benzo[d]imidazol-5-yl)-1,5-dimethyl-1H-pyrazole-4-sulfonamide]
100 to 1000 | CCn1nccc1S(=O)(=O)Nc1cc2c(cc1Oc1cccc(OCc3ccccc3)c1)n(C)c(=O)n2C [Example 42, N-(6-(3-(benzyloxy)phenoxy)-1,3-dimethyl-2-oxo-2,3-dihydro-1H-benzo[d]imidazol-5-yl)-1-ethyl-1H-pyrazole-5-sulfonamide]
100 to 1000 | Cn1c(=O)n(C)c2cc(Oc3cccc(OCc4ccccc4)c3)c(NS(=O)(=O)c3cccc(F)c3)cc21 [Example 43, N-(6-(3-(benzyloxy)phenoxy)-1,3-dimethyl-2-oxo-2,3-dihydro-1H-benzo[d]imidazol-5-yl)-3-fluorobenzenesulfonamide]
100 to 1000 | COc1cc(OC)cc(S(=O)(=O)Nc2cc3c(cc2Oc2cccc(OCc4ccccc4)c2)n(C)c(=O)n3C)c1 [Example 44, N-(6-(3-(benzyloxy)phenoxy)-1,3-dimethyl-2-oxo-2,3-dihydro-1H-benzo[d]imidazol-5-yl)-3,5-dimethoxybenzenesulfonamide]

SMILES | IC50 [nM]
CC(C)COc1ccc(S(=O)(=O)Nc2cc3c(cc2Oc2cccc(OCc4ccccc4)c2)n(C)c(=O)n3C)cc1 [Example 16, N-(6-(3-(benzyloxy)phenoxy)-1,3-dimethyl-2-oxo-2,3-dihydro-1H-benzo[d]imidazol-5-yl)-4-isobutoxybenzenesulfonamide] | > 1000
